Holding throughout (format): cell-based
One assay has as its system E. coli. Description: MIC against E. coli in presence of 50 % human serum. To be noted: Escherichia coli, read-out: MICEc 50%HS.
Another assay has as its system E. coli BW25113. The assay can be described thus: MIC determination (broth microdilution). Put shortly:
(§1)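 MIC values were read visually as the lowest concentration inhibiting growth after 16 h at 30−37°C. Tests followed CLSI M07-A9, using cation-adjusted Mueller-Hinton broth II seeded at approximately 1x10^6 CFU mL-1 and final compound levels of 128 to 0.016 μg/mL added from DMSO.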
On the technique in general: Broth dilution looks for growth in wells or tubes with falling amounts of substance.

A further assay has as its system E. coli DSM1116. The assay can be described thus: MIC determination (broth microdilution). The essentials: as §1
Assay [1] has as its system Salmonella typhimurium TA100. Description: MIC determination (broth microdilution). To be noted: Salmonella enterica, read-out: MIC S. typh. Put shortly: as §1
The subject of assay [2] is Micrococcus luteus DSM 1790. Description: MIC determination (broth microdilution). Particulars: DSM1790, read-out: MIC M. luteus. The essentials:
as §1

The next assay relates to Bacillus subtilis DSM 10. Description: MIC determination (broth microdilution). Particulars: DSM10, read-out: MIC B. sub. The essentials: as §1
[3] abbreviates: E. coli in presence of 50 % human serum.
Where [4] appears, read: Escherichia coli, BW25113; read-out: MIC E. coli BW25113.
The mark [5] stands for this setting: Escherichia coli, DSM1116; read-out: MIC E. coli DSM1116.
The mark [6] stands for this setting: Escherichia coli, BW25113, read-out: MIC E. coli BW25113.
[7] abbreviates: Escherichia coli, DSM1116, read-out: MIC E. coli DSM1116.

Molecules are shown by their SMILES. Converted amounts (≈) assume the structure as drawn. Where two headings read alike, the source gives them in different places.

Regarding `COc1c(NC(=O)c2ccc(NC(=O)c3ccc(NC(=O)[C@H](Cc4c[nH]nn4)NC(=O)c4ccc(NC(=O)c5cc(=O)c6cc(F)ccc6o5)cc4)cn3)c(OC)c2O)ccc(C(=O)O)c1O` [compound 20], the MIC is 8 µg/mL in the assay with E. coli (setting [3]); not above 0.016 µg/mL in the assay on E. coli BW25113 (setting [4]); not above 0.016 µg/mL in the assay with E. coli DSM1116 (setting [5]); not above 0.016 µg/mL in assay [1]; 0.063 µg/mL (≈ 0.0688 µM) in assay [2]; 0.125 µg/mL (≈ 0.136 µM) with Bacillus subtilis DSM 10.
Consider `COc1c(NC(=O)c2ccc(NC(=O)c3ccc(NC(=O)[C@H](Cc4c[nH]nn4)NC(=O)c4ccc(NC(=O)c5ccc6ccccc6n5)cc4)cn3)c(OC)c2O)ccc(C(=O)O)c1O` [compound 11], for which the MIC in the assay on E. coli (setting [3]) is 2 µg/mL; with E. coli BW25113 (setting [4]) it was not above 0.016 µg/mL; in the assay with E. coli DSM1116 (setting [5]), not above 0.016 µg/mL; in assay [1] it was not above 0.016 µg/mL; in assay [2] it was not above 0.016 µg/mL; in the assay on Bacillus subtilis DSM 10, not above 0.016 µg/mL.
Turning to `COc1c(NC(=O)c2ccc(NC(=O)c3ccc(NC(=O)[C@H](Cc4c[nH]nn4)NC(=O)c4ccc(NC(=O)c5ccc6ncsc6c5)cc4)cn3)c(OC)c2O)ccc(C(=O)O)c1O` [compound 22], the MIC in the assay on E. coli (setting [3]) is 0.5 µg/mL; with E. coli BW25113 (setting [4]) it was not above 0.016 µg/mL; with E. coli DSM1116 (setting [5]), not above 0.016 µg/mL; in assay [1], not above 0.016 µg/mL; in assay [2], 0.125 µg/mL (≈ 0.141 µM); in the assay with Bacillus subtilis DSM 10 it was 0.125 µg/mL (≈ 0.141 µM).
Turning to `COc1c(NC(=O)c2ccc(NC(=O)c3ccc(NC(=O)[C@H](Cc4c[nH]nn4)NC(=O)c4ccc(NC(=O)c5ccc(C#N)cc5)cc4)cn3)c(OC)c2O)ccc(C(=O)O)c1O` [compound 4], the MIC is 1 µg/mL with E. coli (setting [3]); not above 0.016 µg/mL in the assay with E. coli BW25113 (setting [4]); 0.031 µg/mL (≈ 0.0363 µM) with E. coli DSM1116 (setting [5]); not above 0.016 µg/mL in assay [1]; 0.125 µg/mL (≈ 0.146 µM) in assay [2]; 0.125 µg/mL (≈ 0.146 µM) with Bacillus subtilis DSM 10.
`COc1c(NC(=O)c2ccc(NC(=O)c3ccc(NC(=O)[C@H](Cc4c[nH]nn4)NC(=O)c4ccc(NC(=O)c5ccc6nc[nH]c6c5)cc4)cn3)c(OC)c2O)ccc(C(=O)O)c1O` [compound 23]: the MIC in the assay with E. coli (setting [3]) is not below 8 µg/mL; in the assay with E. coli BW25113 (setting [6]), 0.125 µg/mL (≈ 0.144 µM); in the assay with E. coli DSM1116 (setting [7]) it was 0.125 µg/mL (≈ 0.144 µM); in assay [1] it was 0.125 µg/mL (≈ 0.144 µM); in assay [2], 2 µg/mL (≈ 2.3 µM); in the assay with Bacillus subtilis DSM 10, 2 µg/mL (≈ 2.3 µM).
As for `COc1c(NC(=O)c2ccc(NC(=O)c3ccc(NC(=O)[C@H](Cc4c[nH]nn4)NC(=O)c4ccc(NC(=O)c5ccc6nn[nH]c6c5)cc4)cn3)c(OC)c2O)ccc(C(=O)O)c1O` [compound 24], the MIC in the assay on E. coli (setting [3]) was 2 µg/mL; in the assay on E. coli BW25113 (setting [4]), 0.125 µg/mL (≈ 0.144 µM); in the assay on E. coli DSM1116 (setting [5]), 0.125 µg/mL (≈ 0.144 µM); in assay [1], 0.031 µg/mL (≈ 0.0356 µM); in assay [2], 0.5 µg/mL (≈ 0.574 µM); in the assay on Bacillus subtilis DSM 10 it was 0.5 µg/mL (≈ 0.574 µM).
Turning to `COc1c(NC(=O)c2ccc(NC(=O)c3ccc(NC(=O)[C@H](Cc4c[nH]nn4)NC(=O)c4ccc(NC(=O)c5c[nH]c6ccccc6c5=O)cc4)cn3)c(OC)c2O)ccc(C(=O)O)c1O` [compound 17], the MIC with E. coli BW25113 (setting [4]) is 0.063 µg/mL (≈ 0.0702 µM); in the assay with E. coli DSM1116 (setting [5]), 0.031 µg/mL (≈ 0.0346 µM); in assay [2] it was not above 0.016 µg/mL; in the assay with Bacillus subtilis DSM 10, not above 0.016 µg/mL.
On to `COc1c(NC(=O)c2ccc(NC(=O)c3ccc(NC(=O)[C@H](Cc4c[nH]nn4)NC(=O)c4ccc(NC(=O)c5cc6ccccc6cn5)cc4)cn3)c(OC)c2O)ccc(C(=O)O)c1O` [compound 12], for which the MIC was 1 µg/mL with E. coli; not above 0.016 µg/mL in the assay with E. coli BW25113 (setting [6]); not above 0.016 µg/mL with E. coli DSM1116 (setting [7]); not above 0.016 µg/mL in assay [1]; 0.063 µg/mL (≈ 0.0715 µM) in assay [2]; 0.063 µg/mL (≈ 0.0715 µM) in the assay on Bacillus subtilis DSM 10.
`COc1c(NC(=O)c2ccc(NC(=O)c3ccc(NC(=O)[C@H](Cc4c[nH]nn4)NC(=O)c4ccc(NC(=O)[C@@H](C)Oc5ccc(O)cc5)cc4)cn3)c(OC)c2O)ccc(C(=O)O)c1O` [compound 9]: the MIC is not below 8 µg/mL in the assay with E. coli (setting [3]); 0.063 µg/mL (≈ 0.0708 µM) in the assay with E. coli BW25113 (setting [4]); 0.063 µg/mL (≈ 0.0708 µM) with E. coli DSM1116 (setting [5]); 0.063 µg/mL (≈ 0.0708 µM) in assay [1]; 2 µg/mL (≈ 2.25 µM) in assay [2]; 1 µg/mL (≈ 1.12 µM) with Bacillus subtilis DSM 10.
On to `COc1c(NC(=O)c2ccc(NC(=O)c3ccc(NC(=O)[C@H](Cc4c[nH]nn4)NC(=O)c4ccc(NC(=O)c5ccc6ncccc6c5)cc4)cn3)c(OC)c2O)ccc(C(=O)O)c1O` [compound 14], for which the MIC was 4 µg/mL with E. coli (setting [3]); not above 0.016 µg/mL in the assay on E. coli BW25113 (setting [4]); 0.016 µg/mL (≈ 0.0182 µM) in the assay with E. coli DSM1116 (setting [5]); not above 0.016 µg/mL in assay [1]; 0.125 µg/mL (≈ 0.142 µM) in assay [2]; 0.25 µg/mL (≈ 0.284 µM) with Bacillus subtilis DSM 10.
For the molecule `COc1c(NC(=O)c2ccc(NC(=O)c3ccc(NC(=O)[C@H](Cc4c[nH]nn4)NC(=O)c4ccc(NC(=O)c5cnc6ccccc6c5)cc4)cn3)c(OC)c2O)ccc(C(=O)O)c1O` [compound 13], the MIC in the assay on E. coli BW25113 (setting [4]) was not above 0.016 µg/mL; in the assay on E. coli DSM1116 (setting [5]), 0.031 µg/mL (≈ 0.0352 µM); in assay [2], 0.125 µg/mL (≈ 0.142 µM); with Bacillus subtilis DSM 10, 0.125 µg/mL (≈ 0.142 µM).
Take `COc1c(NC(=O)c2ccc(NC(=O)c3ccc(NC(=O)[C@H](Cc4c[nH]nn4)NC(=O)c4ccc(NC(=O)c5cc6cc(O)ccc6[nH]5)cc4)cn3)c(OC)c2O)ccc(C(=O)O)c1O` [compound 21]: the MIC with E. coli (setting [3]) is not below 8 µg/mL; in the assay on E. coli BW25113 (setting [6]), 0.125 µg/mL (≈ 0.141 µM); in the assay on E. coli DSM1116 (setting [5]), 0.063 µg/mL (≈ 0.0712 µM); in assay [1], 0.125 µg/mL (≈ 0.141 µM); in assay [2] it was 1 µg/mL (≈ 1.13 µM); in the assay with Bacillus subtilis DSM 10, 1 µg/mL (≈ 1.13 µM).
Take `CCn1cc(C(=O)Nc2ccc(C(=O)N[C@@H](Cc3c[nH]nn3)C(=O)Nc3ccc(C(=O)Nc4ccc(C(=O)Nc5ccc(C(=O)O)c(O)c5OC)c(O)c4OC)nc3)cc2)c(=O)c2ccc(C)nc21` [compound 18]: the MIC with E. coli (setting [3]) is 8 µg/mL; with E. coli BW25113 (setting [4]) it was 0.063 µg/mL (≈ 0.067 µM); in the assay on E. coli DSM1116 (setting [5]), 0.031 µg/mL (≈ 0.033 µM); in assay [1], not above 0.016 µg/mL; in assay [2], 0.031 µg/mL (≈ 0.033 µM); with Bacillus subtilis DSM 10, 0.063 µg/mL (≈ 0.067 µM).
Consider `CCn1cc(C(=O)Nc2ccc(C(=O)N[C@@H](Cc3c[nH]nn3)C(=O)Nc3ccc(C(=O)Nc4ccc(C(=O)Nc5ccc(C(=O)O)c(O)c5OC)c(O)c4OC)nc3)cc2)c(=O)c2cc3c(cc21)OCO3` [compound 19], for which the MIC in the assay on E. coli BW25113 (setting [4]) is not above 0.016 µg/mL; in the assay on E. coli DSM1116 (setting [5]) it was 0.016 µg/mL (≈ 0.0165 µM); in assay [2] it was 0.016 µg/mL (≈ 0.0165 µM); in the assay on Bacillus subtilis DSM 10 it was 0.031 µg/mL (≈ 0.032 µM).

These data come from publication PMC11979685, “Synthesis of Derivatives of the Antibiotic Albicidin: The N‐Terminal Fragment as Key to Control Potency and Resistance Mediated by the Binding Protein AlbA” (Chemistry (Weinheim an Der Bergstrasse, Germany), 2025).
